According to ChEMBL document CHEMBL1275492, “In vitro activity of ceftobiprole against pathogens from two phase 3 clinical trials of complicated skin and skin structure infections” (2008):
Converted amounts (≈) assume the structure as drawn.

Legend:
Type in all cases: functional
Pseudomonas aeruginosa = assay: Antibacterial activity against Pseudomonas aeruginosa obtained from complicated skin and skin structure infections by agar dilution method
Acinetobacter baumannii = assay: Antibacterial activity against Acinetobacter baumannii obtained from complicated skin and skin structure infections by agar dilution method
Pseudomonas fluorescens = assay: Antibacterial activity against Pseudomonas fluorescens obtained from complicated skin and skin structure infections by agar dilution method
[1] = test system: Stenotrophomonas maltophilia; assay: Antibacterial activity against Stenotrophomonas maltophilia obtained from complicated skin and skin structure infections by agar dilution method
Bacteroides fragilis = assay: Antibacterial activity against Bacteroides fragilis obtained from complicated skin and skin structure infections by agar dilution method
Prevotella = assay: Antibacterial activity against Prevotella spp. obtained from complicated skin and skin structure infections by agar dilution method
Veillonella = assay: Antibacterial activity against Veillonella spp. obtained from complicated skin and skin structure infections by agar dilution method
Klebsiella aerogenes = assay: Antibacterial activity against Enterobacter aerogenes obtained from complicated skin and skin structure infections by agar dilution method
Klebsiella oxytoca = assay: Antibacterial activity against Klebsiella oxytoca obtained from complicated skin and skin structure infections by agar dilution method
Staphylococcus aureus [2] = assay: Antibacterial activity against Staphylococcus aureus obtained from complicated skin and skin structure infections by agar dilution method
Staphylococcus aureus [3] = assay: Antibacterial activity against methicillin resistant Staphylococcus aureus obtained from complicated skin and skin structure infections by agar dilution method
Staphylococcus aureus [4] = assay: Antibacterial activity against methicillin susceptible Staphylococcus aureus obtained from complicated skin and skin structure infections by agar dilution method
[5] = test system: Staphylococcus epidermidis; assay: Antibacterial activity against coagulase-negative Staphylococcus epidermidis obtained from complicated skin and skin structure infections by agar dilution method
[6] = test system: Staphylococcus haemolyticus; assay: Antibacterial activity against coagulase-negative Staphylococcus haemolyticus obtained from complicated skin and skin structure infections by agar dilution method
[7] = test system: Staphylococcus lugdunensis; assay: Antibacterial activity against coagulase-negative Staphylococcus lugdunensis obtained from complicated skin and skin structure infections by agar dilution method
Staphylococcus hominis = assay: Antibacterial activity against coagulase-negative Staphylococcus hominis obtained from complicated skin and skin structure infections by agar dilution method
Staphylococcus capitis = assay: Antibacterial activity against coagulase-negative Staphylococcus capitis obtained from complicated skin and skin structure infections by agar dilution method
[8] = test system: Staphylococcus saprophyticus; assay: Antibacterial activity against coagulase-negative Staphylococcus saprophyticus obtained from complicated skin and skin structure infections by agar dilution method
Staphylococcus cohnii = assay: Antibacterial activity against coagulase-negative Staphylococcus cohnii obtained from complicated skin and skin structure infections by agar dilution method
Mammaliicoccus sciuri = assay: Antibacterial activity against coagulase-negative Staphylococcus sciuri obtained from complicated skin and skin structure infections by agar dilution method
Staphylococcus warneri = assay: Antibacterial activity against coagulase-negative Staphylococcus warneri obtained from complicated skin and skin structure infections by agar dilution method
[9] = test system: Staphylococcus lugdunensis; assay: Antibacterial activity against methicillin-resistant, oxacillin-susceptible, coagulase-negative, mecA-positive Staphylococcus lugdunensis obtained from complicated skin and skin structure infections by agar dilution method
Staphylococcus = assay: Antibacterial activity against methicillin-susceptible, coagulase-negative Staphylococcus obtained from complicated skin and skin structure infections by agar dilution method
Enterococcus faecalis = assay: Antibacterial activity against Enterococcus faecalis obtained from complicated skin and skin structure infections by agar dilution method
Enterococcus faecium = assay: Antibacterial activity against Enterococcus faecium obtained from complicated skin and skin structure infections by agar dilution method
Streptococcus agalactiae = assay: Antibacterial activity against Streptococcus agalactiae obtained from complicated skin and skin structure infections by agar dilution method
Streptococcus pyogenes = assay: Antibacterial activity against Streptococcus pyogenes obtained from complicated skin and skin structure infections by agar dilution method
[10] = Antibacterial activity against Streptococcus sp. 'group C' obtained from complicated skin and skin structure infections by agar dilution method
[11] = Antibacterial activity against Streptococcus sp. 'group G' obtained from complicated skin and skin structure infections by agar dilution method
[12] = test system: Streptococcus constellatus; assay: Antibacterial activity against Streptococcus constellatus obtained from complicated skin and skin structure infections by agar dilution method
Streptococcus mitis = assay: Antibacterial activity against Streptococcus mitis obtained from complicated skin and skin structure infections by agar dilution method
[13] = test system: Staphylococcus intermedius; assay: Antibacterial activity against Staphylococcus intermedius obtained from complicated skin and skin structure infections by agar dilution method
Aerococcus viridans = assay: Antibacterial activity against Aerococcus viridans obtained from complicated skin and skin structure infections by agar dilution method
Bacillus = assay: Antibacterial activity against Bacillus spp. obtained from complicated skin and skin structure infections by agar dilution method
Gemella morbillorum = assay: Antibacterial activity against Gemella morbillorum obtained from complicated skin and skin structure infections […]
Gemella = assay: Antibacterial activity against Gemella spp. obtained from complicated skin and skin structure infections by agar dilution method
Lactococcus lactis = assay: Antibacterial activity against Lactococcus lactis obtained from complicated skin and skin structure infections by agar dilution method
Micrococcus = assay: Antibacterial activity against Micrococcus spp. obtained from complicated skin and skin structure infections by agar dilution method
Citrobacter braakii = assay: Antibacterial activity against Citrobacter braakii obtained from complicated skin and skin structure infections by agar dilution method
Citrobacter freundii = assay: Antibacterial activity against Citrobacter freundii obtained from complicated skin and skin structure infections by agar dilution method
Enterobacter amnigenus = assay: Antibacterial activity against Enterobacter amnigenus obtained from complicated skin and skin structure infections by agar dilution method; settings: Lelliottia amnigena
Enterobacter cloacae = assay: Antibacterial activity against Enterobacter cloacae obtained from complicated skin and skin structure infections by agar dilution method
Escherichia coli = assay: Antibacterial activity against Escherichia coli obtained from complicated skin and skin structure infections by agar dilution method
Klebsiella pneumoniae = assay: Antibacterial activity against Klebsiella pneumoniae obtained from complicated skin and skin structure infections by agar dilution method
Morganella morganii = assay: Antibacterial activity against Morganella morganii obtained from complicated skin and skin structure infections by agar dilution method
Proteus mirabilis = assay: Antibacterial activity against Proteus mirabilis obtained from complicated skin and skin structure infections by agar dilution method
Proteus penneri = assay: Antibacterial activity against Proteus penneri obtained from complicated skin and skin structure infections by agar dilution method
Proteus vulgaris = assay: Antibacterial activity against Proteus vulgaris obtained from complicated skin and skin structure infections by agar dilution method
Providencia stuartii = assay: Antibacterial activity against Providencia stuartii obtained from complicated skin and skin structure infections by agar dilution method
Salmonella = assay: Antibacterial activity against Salmonella spp. obtained from complicated skin and skin structure infections by agar dilution method
Serratia marcescens = assay: Antibacterial activity against Serratia marcescens obtained from complicated skin and skin structure infections by agar dilution method

With `Nc1nc(/C(=N/O)C(=O)N[C@@H]2C(=O)N3C(C(=O)O)=C(/C=C4\CCN([C@@H]5CCNC5)C4=O)CS[C@H]23)ns1` [CEFTOBIPROLE] the MIC50 (Pseudomonas aeruginosa) was 4 µg/mL (≈ 7.48 µM), the MIC90 (Pseudomonas aeruginosa) was > 64 µg/mL and the MIC50 (Acinetobacter baumannii) was > 64 µg/mL. For the same compound, the MIC90 (Acinetobacter baumannii) was > 64 µg/mL, the MIC50 (Pseudomonas fluorescens) was > 64 µg/mL and the MIC90 (Pseudomonas fluorescens) was > 64 µg/mL. For the same compound, the MIC50 [1] was > 64 µg/mL, the MIC90 [1] was > 64 µg/mL and the MIC (Bacteroides fragilis) was ≤ 0.03 µg/mL. For the same compound, the MIC (Prevotella) was ≤ 0.03 µg/mL, the MIC (Veillonella) was ≤ 0.03 µg/mL and the MIC50 (Klebsiella aerogenes) was 0.06 µg/mL (≈ 0.112 µM). The MIC90 (Klebsiella aerogenes) was 32 µg/mL (≈ 59.9 µM), the MIC50 (Klebsiella oxytoca) was 0.06 µg/mL (≈ 0.112 µM) and the MIC90 (Klebsiella oxytoca) was 32 µg/mL (≈ 59.9 µM). The MIC50 (Staphylococcus aureus [2]) was 0.5 µg/mL (≈ 0.935 µM), the MIC90 (Staphylococcus aureus [2]) was 1 µg/mL (≈ 1.87 µM) and the MIC50 (Staphylococcus aureus [3]) was 0.5 µg/mL (≈ 0.935 µM). The MIC90 (Staphylococcus aureus [3]) was 2 µg/mL (≈ 3.74 µM), the MIC50 (Staphylococcus aureus [4]) was 0.25 µg/mL (≈ 0.468 µM) and the MIC90 (Staphylococcus aureus [4]) was 0.5 µg/mL (≈ 0.935 µM). The MIC50 [5] was 0.5 µg/mL (≈ 0.935 µM), the MIC90 [5] was 1 µg/mL (≈ 1.87 µM) and the MIC50 [6] was 0.5 µg/mL (≈ 0.935 µM). It also gave an MIC90 [6] of 1 µg/mL (≈ 1.87 µM), an MIC50 [7] of 0.5 µg/mL (≈ 0.935 µM) and an MIC90 [7] of 1 µg/mL (≈ 1.87 µM). The MIC50 (Staphylococcus hominis) was 0.5 µg/mL (≈ 0.935 µM), the MIC90 (Staphylococcus hominis) was 1 µg/mL (≈ 1.87 µM) and the MIC50 (Staphylococcus capitis) was 0.5 µg/mL (≈ 0.935 µM). It also gave an MIC90 (Staphylococcus capitis) of 1 µg/mL (≈ 1.87 µM), an MIC50 [8] of 0.5 µg/mL (≈ 0.935 µM) and an MIC90 [8] of 1 µg/mL (≈ 1.87 µM). For the same compound, the MIC50 (Staphylococcus cohnii) was 0.5 µg/mL (≈ 0.935 µM), the MIC90 (Staphylococcus cohnii) was 1 µg/mL (≈ 1.87 µM) and the MIC50 (Mammaliicoccus sciuri) was 0.5 µg/mL (≈ 0.935 µM). For the same compound, the MIC90 (Mammaliicoccus sciuri) was 1 µg/mL (≈ 1.87 µM), the MIC50 (Staphylococcus warneri) was 0.5 µg/mL (≈ 0.935 µM) and the MIC90 (Staphylococcus warneri) was 1 µg/mL (≈ 1.87 µM). It also gave an MIC50 [9] of 0.5 µg/mL (≈ 0.935 µM), an MIC90 [9] of 2 µg/mL (≈ 3.74 µM) and an MIC50 (Staphylococcus) of 0.25 µg/mL (≈ 0.468 µM). For the same compound, the MIC90 (Staphylococcus) was 0.5 µg/mL (≈ 0.935 µM), the MIC50 (Enterococcus faecalis) was 0.5 µg/mL (≈ 0.935 µM) and the MIC90 (Enterococcus faecalis) was 0.5 µg/mL (≈ 0.935 µM). The MIC50 (Enterococcus faecium) was > 64 µg/mL, the MIC50 (Streptococcus agalactiae) was 0.06 µg/mL (≈ 0.112 µM) and the MIC90 (Streptococcus agalactiae) was 0.12 µg/mL (≈ 0.224 µM). It also gave an MIC (Streptococcus pyogenes) of 0.008 µg/mL (≈ 0.015 µM), an MIC50 (Streptococcus pyogenes) of 0.008 µg/mL (≈ 0.015 µM) and an MIC90 (Streptococcus pyogenes) of 0.015 µg/mL (≈ 0.0281 µM). For the same compound, the MIC50 [10] was 0.06 µg/mL (≈ 0.112 µM), the MIC90 [10] was 0.12 µg/mL (≈ 0.224 µM) and the MIC50 [11] was 0.008 µg/mL (≈ 0.015 µM). It also gave an MIC90 [11] of 0.06 µg/mL (≈ 0.112 µM), an MIC50 [12] of 0.06 µg/mL (≈ 0.112 µM) and an MIC90 [12] of 0.12 µg/mL (≈ 0.224 µM). It also gave an MIC50 (Streptococcus mitis) of 0.06 µg/mL (≈ 0.112 µM), an MIC90 (Streptococcus mitis) of 0.12 µg/mL (≈ 0.224 µM) and an MIC50 [13] of 0.06 µg/mL (≈ 0.112 µM). For the same compound, the MIC90 [13] was 0.12 µg/mL (≈ 0.224 µM), the MIC50 (Aerococcus viridans) was 0.12 µg/mL (≈ 0.224 µM) and the MIC90 (Aerococcus viridans) was 0.25 µg/mL (≈ 0.468 µM). It also gave an MIC50 (Bacillus) of 0.12 µg/mL (≈ 0.224 µM), an MIC90 (Bacillus) of 0.25 µg/mL (≈ 0.468 µM) and an MIC50 (Gemella morbillorum) of 0.12 µg/mL (≈ 0.224 µM). The MIC90 (Gemella morbillorum) was 0.25 µg/mL (≈ 0.468 µM), the MIC50 (Gemella) was 0.12 µg/mL (≈ 0.224 µM) and the MIC90 (Gemella) was 0.25 µg/mL (≈ 0.468 µM). The MIC50 (Lactococcus lactis) was 0.12 µg/mL (≈ 0.224 µM), the MIC90 (Lactococcus lactis) was 0.25 µg/mL (≈ 0.468 µM) and the MIC50 (Micrococcus) was 0.12 µg/mL (≈ 0.224 µM). It also gave an MIC90 (Micrococcus) of 0.25 µg/mL (≈ 0.468 µM), an MIC50 (Citrobacter braakii) of 0.06 µg/mL (≈ 0.112 µM) and an MIC90 (Citrobacter braakii) of 32 µg/mL (≈ 59.9 µM). The MIC50 (Citrobacter freundii) was 0.06 µg/mL (≈ 0.112 µM), the MIC90 (Citrobacter freundii) was 32 µg/mL (≈ 59.9 µM) and the MIC50 (Enterobacter amnigenus) was 0.06 µg/mL (≈ 0.112 µM). The MIC90 (Enterobacter amnigenus) was 32 µg/mL (≈ 59.9 µM), the MIC50 (Enterobacter cloacae) was 0.06 µg/mL (≈ 0.112 µM) and the MIC90 (Enterobacter cloacae) was > 64 µg/mL. For the same compound, the MIC50 (Escherichia coli) was 0.06 µg/mL (≈ 0.112 µM), the MIC90 (Escherichia coli) was 0.12 µg/mL (≈ 0.224 µM) and the MIC50 (Klebsiella pneumoniae) was 0.06 µg/mL (≈ 0.112 µM). For the same compound, the MIC90 (Klebsiella pneumoniae) was 32 µg/mL (≈ 59.9 µM), the MIC50 (Morganella morganii) was 0.12 µg/mL (≈ 0.224 µM) and the MIC90 (Morganella morganii) was 64 µg/mL (≈ 120 µM). It also gave an MIC50 (Proteus mirabilis) of 0.03 µg/mL (≈ 0.0561 µM), an MIC90 (Proteus mirabilis) of 0.12 µg/mL (≈ 0.224 µM) and an MIC50 (Proteus penneri) of 0.06 µg/mL (≈ 0.112 µM). For the same compound, the MIC90 (Proteus penneri) was 32 µg/mL (≈ 59.9 µM), the MIC50 (Proteus vulgaris) was 0.06 µg/mL (≈ 0.112 µM) and the MIC90 (Proteus vulgaris) was 32 µg/mL (≈ 59.9 µM). For the same compound, the MIC50 (Providencia stuartii) was 0.06 µg/mL (≈ 0.112 µM), the MIC90 (Providencia stuartii) was 32 µg/mL (≈ 59.9 µM) and the MIC50 (Salmonella) was 0.06 µg/mL (≈ 0.112 µM). For the same compound, the MIC90 (Salmonella) was 32 µg/mL (≈ 59.9 µM), the MIC50 (Serratia marcescens) was 0.06 µg/mL (≈ 0.112 µM) and the MIC90 (Serratia marcescens) was 32 µg/mL (≈ 59.9 µM).
